Drawing on ChEMBL document CHEMBL4477252, “Optimization of microtubule affinity regulating kinase (MARK) inhibitors with improved physical properties” (Bioorg Med Chem Lett, 2016), this text covers IC50 for two compounds.

Glycogen synthase kinase-3 alpha, sequence (P49840 whole entry): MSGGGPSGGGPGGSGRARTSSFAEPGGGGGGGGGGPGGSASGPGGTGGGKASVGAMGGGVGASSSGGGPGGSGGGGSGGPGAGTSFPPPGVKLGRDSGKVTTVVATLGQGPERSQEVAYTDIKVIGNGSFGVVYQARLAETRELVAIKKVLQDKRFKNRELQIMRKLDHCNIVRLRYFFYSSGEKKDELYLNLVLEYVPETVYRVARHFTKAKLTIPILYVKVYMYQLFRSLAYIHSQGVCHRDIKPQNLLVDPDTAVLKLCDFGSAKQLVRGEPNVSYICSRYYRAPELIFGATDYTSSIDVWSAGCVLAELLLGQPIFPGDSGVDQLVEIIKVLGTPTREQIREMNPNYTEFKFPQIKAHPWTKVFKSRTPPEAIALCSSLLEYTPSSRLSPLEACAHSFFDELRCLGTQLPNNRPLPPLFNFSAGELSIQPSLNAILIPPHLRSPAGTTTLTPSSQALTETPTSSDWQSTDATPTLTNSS

The first experiment addresses T1, Calcium/calmodulin-dependent protein kinase type IV (Homo sapiens, UniProt Q16566).
T1 sequence (Q16566 whole entry): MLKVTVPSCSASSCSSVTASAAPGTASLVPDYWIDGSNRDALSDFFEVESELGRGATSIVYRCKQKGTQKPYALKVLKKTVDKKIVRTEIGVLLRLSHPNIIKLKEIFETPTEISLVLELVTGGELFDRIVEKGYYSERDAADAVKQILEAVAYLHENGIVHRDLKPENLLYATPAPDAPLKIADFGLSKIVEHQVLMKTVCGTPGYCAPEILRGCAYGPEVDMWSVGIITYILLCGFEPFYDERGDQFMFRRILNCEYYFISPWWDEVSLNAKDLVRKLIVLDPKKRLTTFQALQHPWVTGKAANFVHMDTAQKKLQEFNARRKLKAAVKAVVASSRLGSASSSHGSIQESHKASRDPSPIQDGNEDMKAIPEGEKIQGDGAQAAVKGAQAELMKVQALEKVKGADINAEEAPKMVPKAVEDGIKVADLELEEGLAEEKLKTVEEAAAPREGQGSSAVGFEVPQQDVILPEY
Nature of the experiment: Inhibition of full-length recombinant human GST-tagged CAMK4 expressed in Escherichia coli by Z'-LYTE assay.
Usually IC50 stands for the point on the concentration scale where inhibition reaches its midpoint. `Cc1sc(C(=O)N[C@@H]2[C@H](N)CCCC2(F)F)cc1-c1cnn2cc(Cl)cnc12`: the IC50 came to 29 µM.

In the case of `Cn1cc(-c2cnc3c(-c4csc(C(=O)N[C@@H]5CCCC[C@@H]5N)c4)cnn3c2)cn1` (racemic), the IC50 was above 10 µM.

The target of another experiment is High affinity nerve growth factor receptor (Homo sapiens, UniProt P04629). The experiment is described as follows: Inhibition of recombinant human His-tagged cytoplasmic NTRK1 expressed in baculovirus expression system by Z'-LYTE assay.
High affinity nerve growth factor receptor, sequence (P04629 whole entry): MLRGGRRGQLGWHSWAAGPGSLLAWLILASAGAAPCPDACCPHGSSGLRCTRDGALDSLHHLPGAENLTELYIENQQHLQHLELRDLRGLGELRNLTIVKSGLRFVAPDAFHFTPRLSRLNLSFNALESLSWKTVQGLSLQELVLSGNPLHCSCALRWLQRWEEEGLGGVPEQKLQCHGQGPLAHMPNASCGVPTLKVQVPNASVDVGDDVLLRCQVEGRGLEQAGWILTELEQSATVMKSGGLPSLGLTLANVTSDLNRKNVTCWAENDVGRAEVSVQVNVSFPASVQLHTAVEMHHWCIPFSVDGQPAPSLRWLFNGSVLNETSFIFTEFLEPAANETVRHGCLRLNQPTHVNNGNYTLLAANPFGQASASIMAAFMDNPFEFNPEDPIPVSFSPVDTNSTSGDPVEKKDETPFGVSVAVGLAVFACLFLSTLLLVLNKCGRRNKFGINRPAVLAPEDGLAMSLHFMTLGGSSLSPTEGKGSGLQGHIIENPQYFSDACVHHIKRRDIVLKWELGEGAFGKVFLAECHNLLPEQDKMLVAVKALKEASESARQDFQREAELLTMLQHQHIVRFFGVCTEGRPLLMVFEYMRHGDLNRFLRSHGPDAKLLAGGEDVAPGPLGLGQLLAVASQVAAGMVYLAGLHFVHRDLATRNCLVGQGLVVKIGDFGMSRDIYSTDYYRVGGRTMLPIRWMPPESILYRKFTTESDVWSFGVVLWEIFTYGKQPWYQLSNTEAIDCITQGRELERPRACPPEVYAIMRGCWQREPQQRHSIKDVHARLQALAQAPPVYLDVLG
Turning to `Cc1sc(C(=O)N[C@@H]2[C@H](N)CCCC2(F)F)cc1-c1cnn2cc(Cl)cnc12`, the IC50 stood at 2.1 µM.

In the case of `Cn1cc(-c2cnc3c(-c4csc(C(=O)N[C@@H]5CCCC[C@@H]5N)c4)cnn3c2)cn1` (racemic), the IC50 was 0.05 µM.

Another experiment concerns the target T2, Beta-adrenergic receptor kinase 1 (Homo sapiens, UniProt P25098).
T2 sequence (P25098 whole entry): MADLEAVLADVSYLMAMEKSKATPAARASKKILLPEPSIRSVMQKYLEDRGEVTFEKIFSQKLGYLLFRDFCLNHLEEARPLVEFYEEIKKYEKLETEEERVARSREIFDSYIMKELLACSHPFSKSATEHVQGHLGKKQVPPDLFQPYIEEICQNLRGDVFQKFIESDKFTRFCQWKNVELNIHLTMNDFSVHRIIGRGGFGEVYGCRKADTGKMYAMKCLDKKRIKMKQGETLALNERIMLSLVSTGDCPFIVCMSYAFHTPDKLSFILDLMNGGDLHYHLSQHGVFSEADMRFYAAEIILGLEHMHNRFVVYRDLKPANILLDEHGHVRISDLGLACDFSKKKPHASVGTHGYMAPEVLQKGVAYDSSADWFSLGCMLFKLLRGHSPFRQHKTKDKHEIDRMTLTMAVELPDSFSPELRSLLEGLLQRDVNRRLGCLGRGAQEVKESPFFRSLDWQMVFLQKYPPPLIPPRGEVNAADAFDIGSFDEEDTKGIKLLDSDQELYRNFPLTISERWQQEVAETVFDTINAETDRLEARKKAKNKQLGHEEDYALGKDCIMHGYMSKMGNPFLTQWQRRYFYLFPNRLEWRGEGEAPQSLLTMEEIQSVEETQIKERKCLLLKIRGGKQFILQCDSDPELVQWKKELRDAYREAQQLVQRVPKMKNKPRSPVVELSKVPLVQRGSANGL
The experiment is described as follows: Inhibition of full-length recombinant human His-tagged ADRBK1 expressed in baculovirus expression system by Z'-LYTE assay.
Turning to `Cc1sc(C(=O)N[C@@H]2[C@H](N)CCCC2(F)F)cc1-c1cnn2cc(Cl)cnc12`, the IC50 is 11 µM.

Regarding `Cn1cc(-c2cnc3c(-c4csc(C(=O)N[C@@H]5CCCC[C@@H]5N)c4)cnn3c2)cn1` (racemic), the IC50 was found to be 0.16 µM.

Another experiment has as its target Receptor tyrosine-protein kinase erbB-2 (Homo sapiens, UniProt P04626). The experiment is described as follows: Inhibition of recombinant human His-tagged cytoplasmic ERBB2 expressed in baculovirus expression system by Z'-LYTE assay.
Turning to `Cc1sc(C(=O)N[C@@H]2[C@H](N)CCCC2(F)F)cc1-c1cnn2cc(Cl)cnc12`, the IC50 is above 100 µM.

For `Cn1cc(-c2cnc3c(-c4csc(C(=O)N[C@@H]5CCCC[C@@H]5N)c4)cnn3c2)cn1` (racemic), the IC50 stood at 1 µM.

Another experiment concerns the target Glycogen synthase kinase-3 alpha (Homo sapiens, UniProt P49840). Nature of the experiment: Inhibition of full-length human GST-tagged GSK3A expressed in baculovirus expression system by Z'-LYTE assay.
`Cc1sc(C(=O)N[C@@H]2[C@H](N)CCCC2(F)F)cc1-c1cnn2cc(Cl)cnc12` displayed an IC50 of 0.11 µM.

Take `Cn1cc(-c2cnc3c(-c4csc(C(=O)N[C@@H]5CCCC[C@@H]5N)c4)cnn3c2)cn1` (racemic): the IC50 came to 0.042 µM.

For the next experiment, the target named is T3, Inhibitor of nuclear factor kappa-B kinase subunit beta (Homo sapiens, UniProt O14920).
T3 sequence (O14920 whole entry): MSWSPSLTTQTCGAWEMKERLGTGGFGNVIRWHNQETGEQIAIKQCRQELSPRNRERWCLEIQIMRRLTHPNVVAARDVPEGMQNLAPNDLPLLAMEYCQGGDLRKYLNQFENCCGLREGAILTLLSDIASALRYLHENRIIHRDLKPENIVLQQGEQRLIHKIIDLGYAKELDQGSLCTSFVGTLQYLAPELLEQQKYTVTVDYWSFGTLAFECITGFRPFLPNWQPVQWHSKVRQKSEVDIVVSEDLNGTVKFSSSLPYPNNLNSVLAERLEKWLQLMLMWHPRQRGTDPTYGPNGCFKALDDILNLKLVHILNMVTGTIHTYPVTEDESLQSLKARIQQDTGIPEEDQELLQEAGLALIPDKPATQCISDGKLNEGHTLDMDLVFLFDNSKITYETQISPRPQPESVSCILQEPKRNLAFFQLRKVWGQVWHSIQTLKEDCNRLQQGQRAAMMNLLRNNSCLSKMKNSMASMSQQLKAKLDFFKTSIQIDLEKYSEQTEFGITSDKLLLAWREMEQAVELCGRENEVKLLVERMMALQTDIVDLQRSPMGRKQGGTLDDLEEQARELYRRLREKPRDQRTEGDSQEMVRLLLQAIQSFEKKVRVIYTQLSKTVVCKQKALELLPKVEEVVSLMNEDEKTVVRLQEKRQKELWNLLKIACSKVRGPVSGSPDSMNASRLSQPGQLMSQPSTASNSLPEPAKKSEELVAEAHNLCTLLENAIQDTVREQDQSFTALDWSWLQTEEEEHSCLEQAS
Nature of the experiment: Inhibition of full-length recombinant human GST-tagged IKK-beta expressed in baculovirus expression system by Z'-LYTE assay.
With `Cc1sc(C(=O)N[C@@H]2[C@H](N)CCCC2(F)F)cc1-c1cnn2cc(Cl)cnc12`, the IC50 came to 31 µM.

Turning to `Cn1cc(-c2cnc3c(-c4csc(C(=O)N[C@@H]5CCCC[C@@H]5N)c4)cnn3c2)cn1` (racemic), the IC50 was above 10 µM.

In the next experiment the target is Misshapen-like kinase 1 (Homo sapiens, UniProt Q8N4C8). The experiment is described as follows: Inhibition of recombinant human His-tagged MINK1 catalytic domain expressed in baculovirus expression system by Z'-LYTE assay.
Misshapen-like kinase 1, sequence (Q8N4C8 whole entry, the tested form may be a part): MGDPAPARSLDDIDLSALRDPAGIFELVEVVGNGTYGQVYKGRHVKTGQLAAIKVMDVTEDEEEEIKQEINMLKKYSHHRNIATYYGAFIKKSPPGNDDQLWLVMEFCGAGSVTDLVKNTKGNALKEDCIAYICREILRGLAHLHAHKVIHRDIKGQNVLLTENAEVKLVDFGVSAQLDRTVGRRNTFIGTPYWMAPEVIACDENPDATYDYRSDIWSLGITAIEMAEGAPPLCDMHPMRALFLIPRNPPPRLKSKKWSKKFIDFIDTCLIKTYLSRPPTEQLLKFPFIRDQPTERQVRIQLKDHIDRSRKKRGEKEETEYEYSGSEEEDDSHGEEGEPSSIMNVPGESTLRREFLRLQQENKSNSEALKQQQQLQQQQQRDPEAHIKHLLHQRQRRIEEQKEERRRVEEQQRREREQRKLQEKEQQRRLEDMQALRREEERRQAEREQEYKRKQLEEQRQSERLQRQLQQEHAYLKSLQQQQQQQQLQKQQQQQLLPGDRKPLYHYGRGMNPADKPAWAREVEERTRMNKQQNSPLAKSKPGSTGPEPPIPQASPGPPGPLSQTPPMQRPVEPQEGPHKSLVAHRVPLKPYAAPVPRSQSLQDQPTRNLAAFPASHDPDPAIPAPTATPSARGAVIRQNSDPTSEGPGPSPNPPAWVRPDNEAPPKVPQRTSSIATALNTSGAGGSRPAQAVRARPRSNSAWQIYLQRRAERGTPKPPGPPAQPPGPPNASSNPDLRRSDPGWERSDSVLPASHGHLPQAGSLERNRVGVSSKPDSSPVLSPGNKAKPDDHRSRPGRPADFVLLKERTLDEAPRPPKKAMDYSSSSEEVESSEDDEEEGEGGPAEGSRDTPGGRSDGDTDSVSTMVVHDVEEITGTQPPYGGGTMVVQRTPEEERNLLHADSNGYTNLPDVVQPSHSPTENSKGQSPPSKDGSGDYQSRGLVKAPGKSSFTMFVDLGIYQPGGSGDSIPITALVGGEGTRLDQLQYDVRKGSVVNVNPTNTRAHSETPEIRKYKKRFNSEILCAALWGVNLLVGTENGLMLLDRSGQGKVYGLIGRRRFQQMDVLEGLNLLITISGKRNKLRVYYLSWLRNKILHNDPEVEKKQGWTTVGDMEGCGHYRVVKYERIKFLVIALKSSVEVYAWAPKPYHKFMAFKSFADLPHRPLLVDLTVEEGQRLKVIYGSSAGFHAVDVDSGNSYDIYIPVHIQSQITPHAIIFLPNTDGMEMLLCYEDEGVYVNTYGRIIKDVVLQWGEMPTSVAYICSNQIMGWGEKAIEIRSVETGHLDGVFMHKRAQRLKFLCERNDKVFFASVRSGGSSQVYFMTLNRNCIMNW
Consider `Cc1sc(C(=O)N[C@@H]2[C@H](N)CCCC2(F)F)cc1-c1cnn2cc(Cl)cnc12`, for which the IC50 is 0.14 µM.

Consider `Cn1cc(-c2cnc3c(-c4csc(C(=O)N[C@@H]5CCCC[C@@H]5N)c4)cnn3c2)cn1` (racemic), for which the IC50 turned out to be 0.006 µM.

The target in another experiment is Serine/threonine-protein kinase Nek6 (Homo sapiens, UniProt Q9HC98). Nature of the experiment: Inhibition of full-length recombinant human GST-tagged NEK6 expressed in insect cells by Z'-LYTE assay.
Serine/threonine-protein kinase Nek6, sequence (Q9HC98 whole entry): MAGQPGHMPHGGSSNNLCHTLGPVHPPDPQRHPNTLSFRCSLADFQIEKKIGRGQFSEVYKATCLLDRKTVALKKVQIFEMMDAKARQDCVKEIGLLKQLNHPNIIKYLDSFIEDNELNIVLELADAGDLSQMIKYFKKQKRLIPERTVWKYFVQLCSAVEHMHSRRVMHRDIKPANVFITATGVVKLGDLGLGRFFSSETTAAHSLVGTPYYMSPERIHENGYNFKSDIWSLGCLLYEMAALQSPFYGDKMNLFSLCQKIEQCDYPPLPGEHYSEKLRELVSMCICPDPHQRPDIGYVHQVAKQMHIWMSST
As for `Cc1sc(C(=O)N[C@@H]2[C@H](N)CCCC2(F)F)cc1-c1cnn2cc(Cl)cnc12`, the IC50 was 17 µM.

Consider `Cn1cc(-c2cnc3c(-c4csc(C(=O)N[C@@H]5CCCC[C@@H]5N)c4)cnn3c2)cn1` (racemic), for which the IC50 worked out at 2.6 µM.

For the next experiment, the target named is Aurora kinase B (Homo sapiens, UniProt Q96GD4). Nature of the experiment: Inhibition of full-length recombinant human His-tagged AURKB expressed in baculovirus expression system by LanthaScreen assay.
Aurora kinase B, sequence (Q96GD4 whole entry): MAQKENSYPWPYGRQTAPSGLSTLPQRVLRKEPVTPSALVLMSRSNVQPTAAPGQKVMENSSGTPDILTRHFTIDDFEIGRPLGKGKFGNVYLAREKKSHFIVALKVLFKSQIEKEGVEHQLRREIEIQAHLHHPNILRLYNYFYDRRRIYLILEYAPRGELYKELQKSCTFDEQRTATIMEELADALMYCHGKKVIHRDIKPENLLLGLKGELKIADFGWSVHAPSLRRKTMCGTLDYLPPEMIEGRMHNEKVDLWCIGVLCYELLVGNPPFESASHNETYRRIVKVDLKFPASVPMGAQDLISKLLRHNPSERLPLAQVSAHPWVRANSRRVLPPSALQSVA
On to `Cc1sc(C(=O)N[C@@H]2[C@H](N)CCCC2(F)F)cc1-c1cnn2cc(Cl)cnc12`, for which the IC50 is 4.6 µM.

With `Cn1cc(-c2cnc3c(-c4csc(C(=O)N[C@@H]5CCCC[C@@H]5N)c4)cnn3c2)cn1` (racemic), the IC50 is 0.028 µM.

For the next experiment, the target named is Serine/threonine-protein kinase Nek4 (Homo sapiens, UniProt P51957). Nature of the experiment: Inhibition of full-length recombinant human GST-tagged NEK4 expressed in baculovirus expression system by Z'-LYTE assay.
Serine/threonine-protein kinase Nek4, sequence (P51957 whole entry): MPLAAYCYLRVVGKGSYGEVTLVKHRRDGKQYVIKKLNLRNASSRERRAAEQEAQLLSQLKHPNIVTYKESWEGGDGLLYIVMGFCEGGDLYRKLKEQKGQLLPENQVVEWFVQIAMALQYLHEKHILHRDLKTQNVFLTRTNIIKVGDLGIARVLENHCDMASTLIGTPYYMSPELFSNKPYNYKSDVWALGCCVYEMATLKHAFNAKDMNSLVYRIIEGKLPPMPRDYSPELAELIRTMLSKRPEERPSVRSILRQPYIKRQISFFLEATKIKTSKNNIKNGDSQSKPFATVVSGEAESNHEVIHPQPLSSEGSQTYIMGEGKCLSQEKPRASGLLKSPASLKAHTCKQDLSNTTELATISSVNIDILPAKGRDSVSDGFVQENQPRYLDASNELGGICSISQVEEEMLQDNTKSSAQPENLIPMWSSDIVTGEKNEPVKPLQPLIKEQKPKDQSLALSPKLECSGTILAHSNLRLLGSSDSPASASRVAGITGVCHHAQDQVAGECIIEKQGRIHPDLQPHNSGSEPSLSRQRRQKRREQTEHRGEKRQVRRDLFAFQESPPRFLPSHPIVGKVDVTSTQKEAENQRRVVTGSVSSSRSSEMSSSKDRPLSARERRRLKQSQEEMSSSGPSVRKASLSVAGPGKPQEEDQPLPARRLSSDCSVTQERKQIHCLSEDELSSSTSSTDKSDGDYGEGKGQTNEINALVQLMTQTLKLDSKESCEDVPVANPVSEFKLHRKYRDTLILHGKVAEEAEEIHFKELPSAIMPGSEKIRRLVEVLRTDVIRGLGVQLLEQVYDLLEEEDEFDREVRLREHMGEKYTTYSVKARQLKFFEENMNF
`Cc1sc(C(=O)N[C@@H]2[C@H](N)CCCC2(F)F)cc1-c1cnn2cc(Cl)cnc12`: the IC50 came out at 0.48 µM.

For the compound `Cn1cc(-c2cnc3c(-c4csc(C(=O)N[C@@H]5CCCC[C@@H]5N)c4)cnn3c2)cn1` (racemic), the IC50 amounted to 0.048 µM.

In a further experiment the target is Rho-associated protein kinase 2 (Homo sapiens, UniProt O75116). The experiment is described as follows: Inhibition of recombinant human N-terminal GST-tagged ROCK2 (1 to 552 residues) catalytic domain expressed in baculovirus expression system by Z'-LYTE assay.
Take `Cc1sc(C(=O)N[C@@H]2[C@H](N)CCCC2(F)F)cc1-c1cnn2cc(Cl)cnc12`: the IC50 stood at 1.1 µM.

Regarding `Cn1cc(-c2cnc3c(-c4csc(C(=O)N[C@@H]5CCCC[C@@H]5N)c4)cnn3c2)cn1` (racemic), the IC50 turned out to be 0.052 µM.

The next experiment concerns the target Death-associated protein kinase 1 (Homo sapiens, UniProt P53355). Nature of the experiment: Inhibition of recombinant human GST-tagged DAPK1 catalytic domain expressed in baculovirus expression system by Adapta assay.
`Cc1sc(C(=O)N[C@@H]2[C@H](N)CCCC2(F)F)cc1-c1cnn2cc(Cl)cnc12`: the IC50 was 0.026 µM.

`Cn1cc(-c2cnc3c(-c4csc(C(=O)N[C@@H]5CCCC[C@@H]5N)c4)cnn3c2)cn1` (racemic): the IC50 came out at 0.0019 µM.

Test system in another experiment: not listed separately
Nature of the experiment: Inhibition of full-length recombinant human GST and His-tagged AMPK alpha2/beta1/gamma1 expressed in baculovirus expression system by LanthaScreen assay. A general note: TR-FRET usually uses a lanthanide donor and a delayed reading to cut background.
For `Cc1sc(C(=O)N[C@@H]2[C@H](N)CCCC2(F)F)cc1-c1cnn2cc(Cl)cnc12`, the IC50 was found to be 0.29 µM.

In another experiment the target is Serine/threonine-protein kinase Chk2 (Homo sapiens, UniProt O96017). The experiment is described as follows: Inhibition of full-length recombinant human His-tagged CHEK2 expressed in baculovirus expression system by Z'-LYTE assay.
Serine/threonine-protein kinase Chk2, sequence (O96017 whole entry): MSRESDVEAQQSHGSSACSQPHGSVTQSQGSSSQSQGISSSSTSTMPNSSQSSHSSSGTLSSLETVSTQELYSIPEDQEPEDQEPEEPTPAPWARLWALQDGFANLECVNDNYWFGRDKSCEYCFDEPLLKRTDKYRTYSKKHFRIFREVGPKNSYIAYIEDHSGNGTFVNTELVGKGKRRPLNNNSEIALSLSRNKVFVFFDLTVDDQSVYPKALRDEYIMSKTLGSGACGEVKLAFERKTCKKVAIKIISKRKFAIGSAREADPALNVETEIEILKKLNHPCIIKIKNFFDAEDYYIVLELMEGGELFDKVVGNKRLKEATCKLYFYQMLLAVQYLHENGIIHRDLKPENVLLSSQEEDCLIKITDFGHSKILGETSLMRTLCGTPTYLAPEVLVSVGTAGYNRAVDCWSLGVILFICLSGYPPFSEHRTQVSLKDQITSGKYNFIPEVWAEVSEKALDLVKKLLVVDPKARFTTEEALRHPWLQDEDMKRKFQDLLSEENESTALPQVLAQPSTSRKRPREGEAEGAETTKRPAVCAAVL
`Cc1sc(C(=O)N[C@@H]2[C@H](N)CCCC2(F)F)cc1-c1cnn2cc(Cl)cnc12`: the IC50 came to 0.39 µM.

Regarding `Cn1cc(-c2cnc3c(-c4csc(C(=O)N[C@@H]5CCCC[C@@H]5N)c4)cnn3c2)cn1` (racemic), the IC50 was 0.024 µM.

The next experiment addresses Fibroblast growth factor receptor 2 (Homo sapiens, UniProt P21802). Nature of the experiment: Inhibition of recombinant human His-tagged cytoplasmic FGFR2 expressed in baculovirus expression system by Z'-LYTE assay.
`Cc1sc(C(=O)N[C@@H]2[C@H](N)CCCC2(F)F)cc1-c1cnn2cc(Cl)cnc12`: the IC50 was found to be 17 µM.

Turning to `Cn1cc(-c2cnc3c(-c4csc(C(=O)N[C@@H]5CCCC[C@@H]5N)c4)cnn3c2)cn1` (racemic), the IC50 is 0.011 µM.
